This is an account of results in patent publication US12644001B2, “Fluorenyl cyanine dyes” (Biotium, Inc., priority 2020, dated 2026).

A short description of this data set: Fluorescence properties (excitation and emission wavelength) of exemplary compounds. It counts as physicochemical. To be noted: for λ^em (nm): emission wavelength; for λ^ex (nm): excitation wavelength. The text has this: Exemplary compounds of the invention along with their known fluorescence properties are shown in Table 2 where λ^ex denotes excitation wavelength and λ^em denotes emission wavelength: […]

Take `CCCOCCOCCOCCOCCOCCOCCOCCOCCOCCOCCONC(=O)CCC1(CCC(=O)NOCCOCCOCCOCCOCCOCCOCCOCCOCCOCCOCCC)c2cc(S(=O)(=O)[O-])ccc2-c2cc3c(cc21)[N+](CCCCCC(=O)ON1C(=O)CCC1=O)=C(/C=C/C1=C(Oc2ccc(S(=O)(=O)O)cc2)C(=C/C=C2/N(CCCCCC(=O)ON4C(=O)CCC4=O)c4cc5c(cc4C2(C)C)-c2ccc(S(=O)(=O)O)cc2C5(CCC(=O)NCCOCCOCCOCCOCCOCCOCCOCCOCCOCCOCCOC)CCC(=O)NCCOCCOCCOCCOCCOCCOCCOCCOCCOCCOCCOC)/CCC1)C3(C)C` [Compound E16]: the “λ^em (nm)” value was found to be 832 nm and the “λ^ex (nm)” value is 823 nm.

As for `CC1(C)C(/C=C/C=C/C=C2\N(CCCCCC(=O)ON3C(=O)CCC3=O)c3cc4c(cc3C2(C)C)-c2c(cc(S(=O)(=O)O)cc2S(=O)(=O)O)C4(C)C)=[N+](CCCCCC(=O)ON2C(=O)CCC2=O)c2cc3c(cc21)-c1c(cc(S(=O)(=O)O)cc1S(=O)(=O)[O-])C3(C)C` [Compound E19], the “λ^em (nm)” value is 720 nm and the “λ^ex (nm)” value is on record as 686 nm.

Take `CCCOCCOCCOCCOCCOCCONC(=O)CCC1(CCC(=O)NCCOCCOCCOCCOCCOCCOC)c2cc3c(cc2-c2c1cc(S(=O)(=O)O)cc2S(=O)(=O)[O-])C(C)(C)C(/C=C/C=C/C=C1/N(CCCCCC(=O)ON2C(=O)CCC2=O)c2cc4c(cc2C1(C)C)-c1c(cc(S(=O)(=O)O)cc1S(=O)(=O)O)C4(CCC(=O)NCCOCCOCCOCCOCCOCCOC)CCC(=O)NOCCOCCOCCOCCOCCOCCC)=[N+]3CCCCCC(=O)ON1C(=O)CCC1=O` (stereo not drawn) [Compound E15]: the “λ^em (nm)” value stood at 721 nm and the “λ^ex (nm)” value came out at 696 nm.

As to `CC1(CCCCCC(=O)O)C(/C=C/C=C2\N(CCCS(=O)(=O)O)c3ccc(S(=O)(=O)[O-])cc3C2(C)C)=[N+](CCCS(=O)(=O)O)c2cc3c(cc21)-c1ccc(S(=O)(=O)O)cc1C3(C)C` (stereo not drawn) [Compound E2], the “λ^em (nm)” value was determined as 602 nm and the “λ^ex (nm)” value is on record as 572 nm.

Turning to `CC1(C)c2cc(S(=O)(=O)O)ccc2-c2cc3c(cc21)N(CCCCCC(=O)ON1C(=O)CCC1=O)\C(=C/C=C/C=C/C=C/C1=[N+](CCCS(=O)(=O)O)c2cc4c(cc2C12CCCCC2)-c1ccc(S(=O)(=O)[O-])cc1C4(C)C)C31CCCCC1` [Compound E6], the “λ^em (nm)” value was found to be 820 nm and the “λ^ex (nm)” value is 795 nm.

Take `CCCOCCOCCOCCOCCOCCONC(=O)CCC1(CCC(=O)NOCCOCCOCCOCCOCCOCCC)c2cc3c(cc2-c2c1cc(S(=O)(=O)O)cc2S(=O)(=O)[O-])C(C)(C)C(/C=C/C1=C(Oc2ccc(S(=O)(=O)O)cc2)C(=C/C=C2/N(CCCCCC(=O)ON4C(=O)CCC4=O)c4cc5c(cc4C2(C)C)-c2c(cc(S(=O)(=O)O)cc2S(=O)(=O)O)C5(CCC(=O)NCCOCCOCCOCCOCCOCCOC)CCC(=O)NCCOCCOCCOCCOCCOCCOC)/CCC1)=[N+]3CCCCCC(=O)ON1C(=O)CCC1=O` [Compound E17]: the “λ^em (nm)” value is reported as 832 nm and the “λ^ex (nm)” value was found to be 823 nm.

Turning to `CCCOCCOCCOCCOCCOCCOCCOCCOCCOCCOCCONC(=O)CCC1(CCC(=O)NCCOCCOCCOCCOCCOCCOCCOCCOCCOCCOCCOC)c2cc(S(=O)(=O)O)ccc2-c2cc3c(cc21)N(CCCCCC(=O)ON1C(=O)CCC1=O)/C(=C/C=C/C=C/C1=[N+](CCCCCC(=O)ON2C(=O)CCC2=O)c2cc4c(cc2C1(C)C)-c1ccc(S(=O)(=O)[O-])cc1C4(CCC(=O)NCCOCCOCCOCCOCCOCCOCCOCCOCCOCCOCCOC)CCC(=O)NOCCOCCOCCOCCOCCOCCOCCOCCOCCOCCOCCC)C3(C)C` (stereo not drawn) [Compound E14], the “λ^em (nm)” value is on record as 721 nm and the “λ^ex (nm)” value came to 696 nm.

`CC1(C)C2=CC3=[N+](CCN2c2ccccc21)c1cc2c(cc1C3(C)CCCCCC(=O)O)-c1ccccc1C2(C)C.[I-]` (stereo not drawn) [Compound E1]: the “λ^em (nm)” value was 518 nm and the “λ^ex (nm)” value was found to be 445 nm.

As to `CC1(C)C(/C=C/C=C/C=C/C=C2\N(CCCCCC(=O)ON3C(=O)CCC3=O)c3cc4c(cc3C2(C)C)-c2ccc(S(=O)(=O)O)cc2C42CCCCC2)=[N+](CCCS(=O)(=O)O)c2cc3c(cc21)-c1ccc(S(=O)(=O)[O-])cc1C31CCCCC1` [Compound E7], the “λ^em (nm)” value was 817 nm and the “λ^ex (nm)” value is reported as 793 nm.
